Experimental data reported in patent US20240285674A1, “USE OF SULFATE GLUCO-GALACTO-OLIGOSACCHARIDE IN PREPARATION OF ANTICOAGULANT AND/OR ANTITHROMBOTIC DRUG” (NANJING UNIVERSITY OF SCIENCE AND TECHNOLOGY, priority 2021, published 2024).
Each block holds one substance with its values, some of them ahead of it.

Key:
Coagulation factor FXa = Coagulation factor FXa (Homo sapiens, UniProt P00742); assay: Inhibitory activity on coagulation factor FXa (chromogenic substrate CS-11(22)); type: biochemical; conditions: sample 1 mg/mL; for Inhibitory effect on coagulation factor FXa: incubated at 37° C. for 1 h
Procedure: (§1) • a. 100 μL of FXa (5 nM) and 50 μL of the sulfate gluco-galacto-oligosaccharide sample (1 mg/mL) were mixed in a 96-well plate, incubated at 37° C. for 1 h, added with 50 μL of a substrate CS-11(22) (1.77 mM), and detected at a wavelength of 405 nm for 60 min, detecting once every minute. • b. 100 μL of HFXIa (human coagulation factor XIa, 1 nM) and 50 μL of the sulfate gluco-galacto-oligosaccharide sample (1 mg/mL) were mixed in a 96-well plate, incubated at 37° C. for 1 h, added with 50 μL of a substrate S2366 (1 mM), and detected at a wavelength of 405 nm for 60 min, detecting once every minute. • c. 100 μL of FXIIa (4 nM) and 50 μL of the sulfate gluco-galacto-oligosaccharide sample (1 mg/mL) were mixed in a 96-well plate, incubated 37° C. for 1 h, added with 50 μL of a substrate Pefachrome FXIIa/TH5253 (1 mM), and detected at a wavelength of 405 nm for 60 min, detecting once every minute. • d. 100 μL of Trypsin (8.3 nM) and 50 μL of the sulfate gluco-galacto-oligosaccharide sample (1 mg/mL) were mixed in a 96-well plate, incubated 37° C. for 1 h, added with 50 μL of a substrate CS-11(22) (1 mM), and detected at a wavelength of 405 nm for 60 min, detecting once every minute. • e. 100 μL of Thrombin (0.2 IU/mL) and 50 μL of the sulfate gluco-galacto-oligosaccharide sample (1 mg/mL) were mixed in a 96-well plate, incubated at 37° C. for 1 h, added with 50 μL of a substrate CS-01(38) (400 μM), and detected at a wavelength of 405 nm for 60 min, detecting once every minute. • f. 100 μL of Kallikrein (1 nM) and 50 μL of the sulfate gluco-galacto-oligosaccharide sample (1 mg/mL) were mixed in a 96-well plate, incubated 37° C. for 1 h, added with 50 μL of a substrate CS-31(02) (1 mM), and detected at a wavelength of 405 nm for 60 min, detecting once every minute.
(§2) Data processing was conducted using the software Graphpad Prism 6.0. Regression analysis was conducted with the reaction time as an abscissa and the absorbance value at 405 nm as an ordinate.
The calculated inhibition rate=(V0−V1)/V0×100%. […] The degree of sulfation of the sulfate gluco-galacto-oligosaccharide was controlled by controlling the ratio of gluco-galacto-oligosaccharide and sulfating reagent. […] It was seen that the more sulfate groups on average per sugar residue, the higher the inhibition rate of FXa by the sulfate gluco-galacto-oligosaccharide.

Coagulation factor FXIIa = biological target: T1, Coagulation factor FXIIa (Homo sapiens, UniProt P00748); assay: Inhibitory activity on FXIIa (chromogenic substrate Pefachrome FXIIa/TH5253); type: biochemical; conditions: sample 1 mg/mL, incubated at 37° C. for 1 h
T1 sequence (P00748 373-615 limits assumed): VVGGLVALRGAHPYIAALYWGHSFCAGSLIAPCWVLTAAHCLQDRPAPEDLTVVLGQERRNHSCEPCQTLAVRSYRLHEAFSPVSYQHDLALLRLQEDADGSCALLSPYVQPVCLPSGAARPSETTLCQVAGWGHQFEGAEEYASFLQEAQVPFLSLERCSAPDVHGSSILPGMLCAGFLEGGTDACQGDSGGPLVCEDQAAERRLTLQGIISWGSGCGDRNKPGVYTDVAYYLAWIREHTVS
Procedure: as §1, with “100 μL of Thrombin (0.2 IU/mL) and 50 μL of the sulfate gluco-galacto-oligosaccharide sample (1 mg/mL) were mixed in a 96-well plate, incubated at 37° C. for 1 h, added with 50 μL of a substrate CS-01(38) (400 μM), and detected at a wavelength of 405 nm for 60 min, detecting once every minute. • f. 100 μL of Kallikrein (1 nM) and 50 μL of the sulfate gluco-galacto-oligosaccharide sample (1 mg/mL) were mixed in a 96-well plate, incubated 37° C. for 1 h, added with 50 μL of a substrate CS-31(02) (1 mM), and detected at a wavelength of 405 nm for 60 min, detecting once every minute.” left out
as §2

[1] = test system: intrinsic coagulation pathway; assay: Activated partial thromboplastin time (APTT) of plasma from mice after tail vein injection; type: in vivo, C57/BL-6J mice; conditions: 0.25, 0.5 and 1.0 mg/mL injected into the tail vein
Procedure: The experimental animals were male C57/BL-6J mice, weighing 18 g to 20 g. The mice were housed under standard experimental conditions with a 12-hour light-12-hour dark cycle with free access to water and food. The mice were anesthetized by intraperitoneal injection of 5% chloral hydrate, and administration of the drug was administered through the tail vein after confirming that the mice were completely anesthetized and had no eyelid reflex. The mice were randomly divided into four groups. […]
Activated partial thromboplastin time (APTT) is a duration required to observe plasma coagulation after adding an APTT reagent and calcium ions to the tested plasma. […] The APTT was measured according to the operating procedures in the kit instructions, and the fibrin formation time was read on the coagulometer. […]
The coagulation time of the physiological saline group was recorded as 1 times, and the multiples of APTT of the sulfate gluco-galacto-oligosaccharide samples with different concentrations relative to the physiological saline group were calculated.

Thrombin = biological target: T2, Thrombin (Homo sapiens, UniProt P00734); assay: Inhibitory activity on thrombin (chromogenic substrate CS-01(38)); type: biochemical; conditions: sample 1 mg/mL, incubated at 37° C. for 1 h
T2 construct: 100 μL of Thrombin (0.2 IU/mL)
Procedure: as §1, with “100 μL of Thrombin (0.2 IU/mL) and 50 μL of the sulfate gluco-galacto-oligosaccharide sample (1 mg/mL) were mixed in a 96-well plate, incubated at 37° C. for 1 h, added with 50 μL of a substrate CS-01(38) (400 μM), and detected at a wavelength of 405 nm for 60 min, detecting once every minute. • f. 100 μL of Kallikrein (1 nM) and 50 μL of the sulfate gluco-galacto-oligosaccharide sample (1 mg/mL) were mixed in a 96-well plate, incubated 37° C. for 1 h, added with 50 μL of a substrate CS-31(02) (1 mM), and detected at a wavelength of 405 nm for 60 min, detecting once every minute.” left out
as §2

[2] = test system: ferric chloride-induced carotid artery thrombosis; assay: Ferric chloride-induced carotid artery thrombosis model, blood vessel occlusion time; type: in vivo, C57/BL-6J mice; conditions: tail vein, mice
Procedure: (§3) The experimental animals were male C57/BL-6J mice, weighing 18 g to 20 g. The mice were housed under standard experimental conditions with a 12-hour light-12-hour dark cycle with free access to water and food. The mice were anesthetized by intraperitoneal injection of 5% chloral hydrate, and administration of the drug was administered through the tail vein after confirming that the mice were completely anesthetized and had no eyelid reflex. The mice were randomly divided into three groups. A first group was a negative control group and was injected with physiological saline through the tail vein; a second group was a low-dose group, with 0.5 mg/mL sulfate gluco-galacto-oligosaccharide injected into the tail vein; and a third group was a high-dose group, with 1.0 mg/mL sulfate gluco-galacto-oligosaccharide injected into the tail vein. After tail vein administration, the mouse carotid arteries were dissected, and a filter paper piece (1 mm×2 mm) dipped in 6.0% ferric chloride solution was applied to the outer wall of the mouse carotid artery to allow induction for 3 min to construct a ferric chloride-induced carotid artery thrombosis model.
The blood flow and thrombosis of the mouse carotid arteries were observed using a laser speckle flow imager, and the mouse carotid arteries were observed under the moorFLPI-2 lens for 15 min. The carotid arteries of the mice at the end of the observation were carefully dissected and stained with HE.
Charts were produced using GraphPad Prism 6.0 software, and statistical differences were analyzed using one-way analysis of variance and Dunnett's multiple comparisons. P<0.05 indicated a significant difference.
Blood vessel occlusion time refers to a duration from removal of the filter paper soaked in ferric chloride to the blood vessel occlusion. If no thrombosis was observed 15 min after removal of the ferric chloride filter paper, 15 min was considered as the vessel occlusion time. Combined with FIG. 3, in the negative control group (physiological saline group), the average blood vessel occlusion time was 4.5±0.23 min. […]

Trypsin = assay: Inhibitory activity on trypsin (chromogenic substrate CS-11(22)); type: biochemical; conditions: sample 1 mg/mL, incubated at 37° C. for 1 h
Procedure: as §1, with “100 μL of Thrombin (0.2 IU/mL) and 50 μL of the sulfate gluco-galacto-oligosaccharide sample (1 mg/mL) were mixed in a 96-well plate, incubated at 37° C. for 1 h, added with 50 μL of a substrate CS-01(38) (400 μM), and detected at a wavelength of 405 nm for 60 min, detecting once every minute. • f. 100 μL of Kallikrein (1 nM) and 50 μL of the sulfate gluco-galacto-oligosaccharide sample (1 mg/mL) were mixed in a 96-well plate, incubated 37° C. for 1 h, added with 50 μL of a substrate CS-31(02) (1 mM), and detected at a wavelength of 405 nm for 60 min, detecting once every minute.” left out
as §2

Kallikrein = Kallikrein (Homo sapiens, UniProt P03952); assay: Inhibitory activity on kallikrein (chromogenic substrate CS-31(02)); type: biochemical; conditions: sample 1 mg/mL, incubated at 37° C. for 1 h
Procedure: as §1, with “100 μL of Thrombin (0.2 IU/mL) and 50 μL of the sulfate gluco-galacto-oligosaccharide sample (1 mg/mL) were mixed in a 96-well plate, incubated at 37° C. for 1 h, added with 50 μL of a substrate CS-01(38) (400 μM), and detected at a wavelength of 405 nm for 60 min, detecting once every minute. • f. 100 μL of Kallikrein (1 nM) and 50 μL of the sulfate gluco-galacto-oligosaccharide sample (1 mg/mL) were mixed in a 96-well plate, incubated 37° C. for 1 h, added with 50 μL of a substrate CS-31(02) (1 mM), and detected at a wavelength of 405 nm for 60 min, detecting once every minute.” left out
as §2

[3] = Tail tip bleeding time (bleeding risk); type: in vivo, C57/BL-6J mice; conditions: tail vein, mice; for cumulative bleeding time: 10 min after administration, capped at 20 min
Procedure: as §3, with “vein.” for “vein. After tail vein administration, the mouse carotid arteries were dissected, and a filter paper piece (1 mm×2 mm) dipped in 6.0% ferric chloride solution was applied to the outer wall of the mouse carotid artery to allow induction for 3 min to construct a ferric chloride-induced carotid artery thrombosis model.”
10 min after administration, the mouse was placed stably with its tail in a naturally straightened state. The mouse tail was cut off 3 mm from the tip, and then immersed in a silanized tube filled with 37° C. physiological saline. Start timing from cutting off the tail tip, 20 min. the accumulated bleeding time t after cutting off the tail tip of the mouse was recorded with a stopwatch. If the bleeding time t was greater than 20 min, it was recorded as 20 min.
Data processing was conducted using the Graphpad Prism 6.0 software. A dot plot of sample concentration was made versus bleeding time. P<0.05 indicated a significant difference.
Bleeding time refers to a duration required from bleeding to natural hemostasis after capillary damage. In the negative control group (physiological saline group), the cumulative bleeding time was 10.35±5.48 min.

[4] = biological target: T3, HFXIa (human coagulation factor XIa) (Homo sapiens, UniProt P03951); assay: Inhibitory activity on coagulation factor XIa (chromogenic substrate S2366); type: biochemical; conditions: sample 1 mg/mL, incubated at 37° C. for 1 h
T3 construct: HFXIa (human coagulation factor XIa, 1 nM)
Procedure: as §1, with “100 μL of Thrombin (0.2 IU/mL) and 50 μL of the sulfate gluco-galacto-oligosaccharide sample (1 mg/mL) were mixed in a 96-well plate, incubated at 37° C. for 1 h, added with 50 μL of a substrate CS-01(38) (400 μM), and detected at a wavelength of 405 nm for 60 min, detecting once every minute. • f. 100 μL of Kallikrein (1 nM) and 50 μL of the sulfate gluco-galacto-oligosaccharide sample (1 mg/mL) were mixed in a 96-well plate, incubated 37° C. for 1 h, added with 50 μL of a substrate CS-31(02) (1 mM), and detected at a wavelength of 405 nm for 60 min, detecting once every minute.” left out
as §2

Sequence of Coagulation factor FXa (P00742 235-488 limits assumed): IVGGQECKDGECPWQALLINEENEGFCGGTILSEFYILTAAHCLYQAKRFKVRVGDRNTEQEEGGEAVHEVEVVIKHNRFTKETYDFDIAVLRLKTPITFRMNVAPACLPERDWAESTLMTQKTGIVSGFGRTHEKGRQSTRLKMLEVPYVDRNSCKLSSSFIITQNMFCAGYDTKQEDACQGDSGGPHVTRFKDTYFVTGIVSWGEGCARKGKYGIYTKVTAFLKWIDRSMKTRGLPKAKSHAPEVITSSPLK
Sequence of Coagulation factor FXa (P00742 41-179 limits assumed): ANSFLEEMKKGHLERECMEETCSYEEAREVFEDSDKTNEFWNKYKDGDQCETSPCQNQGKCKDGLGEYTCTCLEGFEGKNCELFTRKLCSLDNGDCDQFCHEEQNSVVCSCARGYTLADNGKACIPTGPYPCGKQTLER
T3 sequence (P03951 388-625 limits assumed): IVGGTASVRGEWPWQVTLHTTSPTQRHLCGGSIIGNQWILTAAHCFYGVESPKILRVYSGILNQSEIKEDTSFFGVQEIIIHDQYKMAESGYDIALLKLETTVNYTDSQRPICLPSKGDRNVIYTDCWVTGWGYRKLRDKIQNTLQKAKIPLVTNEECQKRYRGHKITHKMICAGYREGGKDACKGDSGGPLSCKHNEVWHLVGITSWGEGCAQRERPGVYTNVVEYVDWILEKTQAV
T3 sequence (P03951 19-387 limits assumed): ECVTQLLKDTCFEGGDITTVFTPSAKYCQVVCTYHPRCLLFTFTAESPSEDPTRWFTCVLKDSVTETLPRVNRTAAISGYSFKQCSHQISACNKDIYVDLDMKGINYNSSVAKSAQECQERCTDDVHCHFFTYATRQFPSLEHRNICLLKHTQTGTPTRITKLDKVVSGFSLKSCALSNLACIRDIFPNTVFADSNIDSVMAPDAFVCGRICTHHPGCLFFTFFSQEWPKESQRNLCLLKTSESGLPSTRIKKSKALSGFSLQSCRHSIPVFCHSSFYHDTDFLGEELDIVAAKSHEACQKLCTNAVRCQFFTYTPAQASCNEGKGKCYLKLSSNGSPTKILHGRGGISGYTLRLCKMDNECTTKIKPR
Sequence of Kallikrein (P03952 391-638 limits assumed): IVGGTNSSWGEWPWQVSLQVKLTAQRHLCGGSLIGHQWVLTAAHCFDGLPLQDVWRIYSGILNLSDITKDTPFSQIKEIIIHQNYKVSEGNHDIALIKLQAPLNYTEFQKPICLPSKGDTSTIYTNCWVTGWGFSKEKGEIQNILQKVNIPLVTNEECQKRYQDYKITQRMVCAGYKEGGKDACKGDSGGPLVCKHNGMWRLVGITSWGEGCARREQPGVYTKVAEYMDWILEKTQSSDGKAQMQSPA
Sequence of Kallikrein (P03952 20-390 partner limits assumed): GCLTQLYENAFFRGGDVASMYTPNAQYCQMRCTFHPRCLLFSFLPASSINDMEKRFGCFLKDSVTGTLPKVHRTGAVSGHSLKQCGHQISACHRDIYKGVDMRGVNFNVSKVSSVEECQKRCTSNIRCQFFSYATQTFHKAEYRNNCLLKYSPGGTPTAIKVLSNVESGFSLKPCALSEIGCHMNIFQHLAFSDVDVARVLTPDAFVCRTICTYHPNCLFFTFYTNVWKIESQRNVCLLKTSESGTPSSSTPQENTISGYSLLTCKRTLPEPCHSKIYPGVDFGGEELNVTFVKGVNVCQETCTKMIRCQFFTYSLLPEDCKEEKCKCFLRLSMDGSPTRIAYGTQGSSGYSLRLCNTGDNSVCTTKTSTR

Substance: sulfate gluco-galacto-oligosaccharide [1.23]
Inhibition rate of FXa (Coagulation factor FXa): 39.2%

Substance: sulfate gluco-galacto-oligosaccharide [0.47]
Inhibition rate of FXa (Coagulation factor FXa): 10.2%

Substance: sulfate gluco-galacto-oligosaccharide
Inhibitory effect on coagulation factor FXIIa (Coagulation factor FXIIa): No inhibition | Effect on APTT (plasma coagulation time relative to physiological saline group) [1]: significant impact on APTT | Inhibitory effect on coagulation factor FXa (Coagulation factor FXa): Inhibition | Inhibition rate of FXa (Coagulation factor FXa; listed as sulfate gluco-galacto-oligosaccharide with averagely 1.65 sulfate groups per sug): 57.6% | Inhibitory effect on Thrombin (Thrombin): No inhibition | average blood vessel occlusion time ([2]; 0.5 mg/mL, observed 15 min): 5.4 ± 1.37 min | Blood flow in carotid artery ([2]; 1.0 mg/mL): remained unchanged | average blood vessel occlusion time ([2]; 1.0 mg/mL, 15 min recorded if no thrombosis within 15 min): 15 min | Inhibitory effect on Trypsin (Trypsin): No inhibition | Inhibitory effect on Kallikrein (Kallikrein): No inhibition | Difference of cumulative bleeding time from physiological saline group ([3]; 0.5 mg/mL and 1.0 mg/mL): no statistically significant difference | cumulative bleeding time ([3]; 0.5 mg/mL): 11.88 ± 4.44 min | cumulative bleeding time ([3]; 1.0 mg/mL): 11.60 ± 4.13 min | Inhibitory effect on coagulation factor FXIa [4]: No inhibition

The next lines start with the values.

Inhibition rate of FXa (Coagulation factor FXa): 65.5%
Substance: sulfate gluco-galacto-oligosaccharide [2.10]

Inhibitory effect on coagulation factor FXa (Coagulation factor FXa): no inhibitory activity
Substance: gluco-galacto-oligosaccharide [reference compound]

Inhibition rate of FXa (Coagulation factor FXa): 78.4%
Substance: sulfate gluco-galacto-oligosaccharide [2.52]
